Results: patent US20230085307A1, “PYRIDAZINONE COMPOUND AND HERBICIDE” (NISSAN CHEMICAL CORPORATION, priority 2019, published 2023)

Assays:
southern crabgrass [1] = experiment: Test Example 5: herbicidal effect by foliage application, plastic box (Table 20, symbol F); format: in vivo, southern crabgrass (Digitaria ciliaris); conditions: foliage application
Method in brief: (§1)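 Plants sown in sterilized diluvial soil and grown 14 days in a greenhouse at 25° C to 30° C, then sprayed on the foliage with the compound's emulsion diluted in water to a predetermined herbicide amount. Injury to weeds and crops scored three weeks after application on a visual rating scale.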

windgrass [2] = experiment: Test Example 5: herbicidal effect by foliage application, plastic box (Table 20, symbol L); format: in vivo, windgrass (Apera spica-venti); conditions: foliage application
Method in brief: as §1

Italian ryegrass [3] = experiment: Test Example 4: herbicidal effect by soil treatment (Table 19, symbol K); format: in vivo, Italian ryegrass (Lolium multiflorum); conditions: for herbicidal effect on K: Italian ryegrass: amount of applied herbicide 320 g/ha
Method in brief: (§2)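 Seeds were sown in sterilized diluvial soil and covered with about 1.5 cm of soil. An emulsion formulation diluted with water to a predetermined herbicide amount was sprayed evenly onto the soil surface. Plants grew in a greenhouse at 25° C. to 30° C., and the effect was scored three weeks after application using criteria from an earlier test.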

Japanese bulrush = experiment: Test Example 2: herbicidal activity, application during weed generation under submerged conditions (Table 17, symbol B); format: in vivo, Japanese bulrush (Schoenoplectus juncoides); conditions: AAH 320 g/ha; application during weed generation, submerged conditions
Method in brief: (§3)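 Mixed weed seedlings in alluvial soil under a 4 cm water layer, greenhouse-grown at 25–30° C. Compound given as a diluted emulsion into the floodwater at the 1–2 leaf stage; response graded after three weeks.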

late watergrass [4] = experiment: Test Example 2: herbicidal activity, application during weed generation under submerged conditions (Table 17, symbol A); format: in vivo, late watergrass (Echinochloa oryzicola); conditions: AAH 320 g/ha; application during weed generation, submerged conditions
Method in brief: as §3

persian speedwell [5] = experiment: Test Example 5: herbicidal effect by foliage application, plastic box (Table 20, symbol R); format: in vivo, Persian speedwell (Veronica persica); conditions: foliage application
Method in brief: as §1

Chinese sprangletop = experiment: Test Example 3: herbicidal effect by foliage application, Wagner pot (Table 18, symbol D); format: in vivo, chinese sprangletop (Leptochloa chinensis); conditions: for herbicidal effect on D (Chinese sprangletop), rating 0-5: 320 g/ha; for herbicidal effect on D: Chinese sprangletop: amount of applied herbicide 320 g/ha
Method in brief: (§4)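 Plants were sown in alluvial soil held under 0.1–0.5 cm standing water and grown 14 days in a greenhouse at 25–30 °C. An emulsifiable formulation, water-diluted to the set dose, was then sprayed onto the foliage, and effects were scored three weeks later using previously defined criteria.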

Italian ryegrass [6] = experiment: Test Example 5: herbicidal effect by foliage application, plastic box (Table 20, symbol K); format: in vivo, Italian ryegrass (Lolium multiflorum); conditions: foliage application
Method in brief: as §1

barnyard grass = experiment: Test Example 3: herbicidal effect by foliage application, Wagner pot (Table 18, symbol H); format: in vivo, barnyard grass (Echinochloa crus-galli); conditions: for herbicidal effect on H (barnyard grass), rating 0-5: 320 g/ha; for herbicidal effect on H: barnyard grass: amount of applied herbicide 320 g/ha
Method in brief: as §4

blackgrass = experiment: Test Example 4: herbicidal effect by soil treatment (Table 19, symbol J); format: in vivo, blackgrass (Alopecurus myosuroides); conditions: for herbicidal effect on J: blackgrass: amount of applied herbicide 320 g/ha
Method in brief: as §2

velvetleaf = experiment: Test Example 4: herbicidal effect by soil treatment (Table 19, symbol M); format: in vivo, velvetleaf (Abutilon theophrasti); conditions: for herbicidal effect on M: velvetleaf: amount of applied herbicide 320 g/ha
Method in brief: as §2

windgrass [7] = experiment: Test Example 4: herbicidal effect by soil treatment (Table 19, symbol L); format: in vivo, windgrass (Apera spica-venti); conditions: for herbicidal effect on L: windgrass: amount of applied herbicide 320 g/ha
Method in brief: as §2

late watergrass [8] = experiment: Test Example 1: herbicidal activity, application before weed generation under submerged conditions (Table 16, symbol A); format: in vivo, late watergrass (Echinochloa oryzicola); conditions: 320 g/ha applied herbicide
Method in brief: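 Alluvial soil was flooded to 4 cm depth, weed seeds were sown mixed and 2.5-leaf rice seedlings were transplanted. On sowing day, the compound's emulsion, diluted in water to a set dose, was applied to the water surface. Plants grew at 25–30 °C and were scored 0–5 after three weeks.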

lambsquarters [9] = experiment: Test Example 4: herbicidal effect by soil treatment (Table 19, symbol O); format: in vivo, lambsquarters (Chenopodium album); conditions: for herbicidal effect on O: lambsquarters: amount of applied herbicide 320 g/ha
Method in brief: as §2

southern crabgrass [10] = experiment: Test Example 4: herbicidal effect by soil treatment (Table 19, symbol F); format: in vivo, southern crabgrass (Digitaria ciliaris); conditions: for herbicidal effect on F: southern crabgrass: amount of applied herbicide 320 g/ha
Method in brief: as §2

lambsquarters [11] = experiment: Test Example 5: herbicidal effect by foliage application, plastic box (Table 20, symbol O); format: in vivo, lambsquarters (Chenopodium album); conditions: foliage application
Method in brief: as §1

persian speedwell [12] = experiment: Test Example 4: herbicidal effect by soil treatment (Table 19, symbol R); format: in vivo, Persian speedwell (Veronica persica); conditions: for herbicidal effect on R: persian speedwell: amount of applied herbicide 320 g/ha
Method in brief: as §2

[13] = 320 g/ha, evaluated three weeks after application
[14] = AAH 320 g/ha, three weeks after application
[15] = AAH 320 g/ha, evaluated three weeks after application

| Compound | herbicidal effect rating, B: Japanese bulrush (Japanese bulrush) | herbicidal effect rating, A: late watergrass (late watergrass [4]) | herbicidal effect on D (Chinese sprangletop), rating 0-5 (Chinese sprangletop) | herbicidal effect on H (barnyard grass), rating 0-5 (barnyard grass) | Herbicidal effect on A: late watergrass (grade 0-5) (late watergrass [8]) | herbicidal effect on K: Italian ryegrass (Italian ryegrass [3]) | herbicidal effect on D: Chinese sprangletop (Chinese sprangletop) | herbicidal effect on H: barnyard grass (barnyard grass) | herbicidal effect on J: blackgrass (blackgrass) | herbicidal effect on M: velvetleaf (velvetleaf) | herbicidal effect on L: windgrass (windgrass [7]) | herbicidal effect on O: lambsquarters (lambsquarters [9]) | herbicidal effect on F: southern crabgrass (southern crabgrass [10]) | herbicidal effect on R: persian speedwell (persian speedwell [12]) | other results |
| --- | --- | --- | --- | --- | --- | --- | --- | --- | --- | --- | --- | --- | --- | --- | --- |
| Cc1nn(C)c(=O)c(-c2c(-c3ccc(OCC4CC4)cc3)sc3ccc(F)cc23)c1O [2-060] | 3 (Herbicidal rate of 40% or more and less than 70%) | 0 (Herbicidal rate of 5% or less (almost no effect)) | 3 (Herbicidal rate of 40% or more and less than 70%) | 3 (Herbicidal rate of 40% or more and less than 70%) | 0 (Herbicidal rate of 5% or less (almost no effect)) |  |  |  |  |  |  |  |  |  | herbicidal effect on F: southern crabgrass (southern crabgrass [1]; [13]): 4 (Herbicidal rate of 70% or more and less than 90%); herbicidal effect on L: windgrass (windgrass [2]; [13]): 4 (Herbicidal rate of 70% or more and less than 90%); herbicidal effect rating, K: Italian ryegrass (Italian ryegrass [3]; 320 g/ha): 0 (Herbicidal rate of 5% or less (almost no effect)); herbicidal effect on R: persian speedwell (persian speedwell [5]; [13]): 5 (Herbicidal rate of 90% or more (almost completely withered)); herbicidal effect on K: Italian ryegrass (Italian ryegrass [6]; [13]): 0 (Herbicidal rate of 5% or less (almost no effect)); herbicidal effect rating, J: blackgrass (blackgrass; 320 g/ha): 0 (Herbicidal rate of 5% or less (almost no effect)); herbicidal effect rating, M: velvetleaf (velvetleaf; 320 g/ha): 0 (Herbicidal rate of 5% or less (almost no effect)); herbicidal effect rating, L: windgrass (windgrass [7]; 320 g/ha): 0 (Herbicidal rate of 5% or less (almost no effect)); herbicidal effect rating, O: lambsquarters (lambsquarters [9]; 320 g/ha): 4 (Herbicidal rate of 70% or more and less than 90%); herbicidal effect rating, F: southern crabgrass (southern crabgrass [10]; 320 g/ha): 3 (Herbicidal rate of 40% or more and less than 70%); herbicidal effect on O: lambsquarters (lambsquarters [11]; [13]): 4 (Herbicidal rate of 70% or more and less than 90%); herbicidal effect rating, R: persian speedwell (persian speedwell [12]; 320 g/ha): 5 (Herbicidal rate of 90% or more (almost completely withered)) |
| CCCC(=O)Oc1c(C)nn(C)c(=O)c1-c1c(-c2ccc(C(F)(F)F)cc2)sc2ccccc12 [1-130] | 2 (Herbicidal rate of 20% or more and less than 40%) | 2 (Herbicidal rate of 20% or more and less than 40%) | 3 (Herbicidal rate of 40% or more and less than 70%) | 4 (Herbicidal rate of 70% or more and less than 90%) | 3 (Herbicidal rate of 40% or more and less than 70%) |  |  |  |  |  |  |  |  |  | F: southern crabgrass, herbicidal effect (southern crabgrass [1]; [14]): 0 (Herbicidal rate of 5% or less (almost no effect)); L: windgrass, herbicidal effect (windgrass [2]; [14]): 3 (Herbicidal rate of 40% or more and less than 70%); K: Italian ryegrass, herbicidal effect rating (Italian ryegrass [3]; AAH 320 g/ha): 4 (Herbicidal rate of 70% or more and less than 90%); R: persian speedwell, herbicidal effect (persian speedwell [5]; [14]): 5 (Herbicidal rate of 90% or more (almost completely withered)); K: Italian ryegrass, herbicidal effect (Italian ryegrass [6]; [14]): 5 (Herbicidal rate of 90% or more (almost completely withered)); J: blackgrass, herbicidal effect rating (blackgrass; AAH 320 g/ha): 0 (Herbicidal rate of 5% or less (almost no effect)); M: velvetleaf, herbicidal effect rating (velvetleaf; AAH 320 g/ha): 1 (Herbicidal rate of 5% or more and less than 20%); L: windgrass, herbicidal effect rating (windgrass [7]; AAH 320 g/ha): 0 (Herbicidal rate of 5% or less (almost no effect)); O: lambsquarters, herbicidal effect rating (lambsquarters [9]; AAH 320 g/ha): 4 (Herbicidal rate of 70% or more and less than 90%); F: southern crabgrass, herbicidal effect rating (southern crabgrass [10]; AAH 320 g/ha): 1 (Herbicidal rate of 5% or more and less than 20%); O: lambsquarters, herbicidal effect (lambsquarters [11]; [14]): 4 (Herbicidal rate of 70% or more and less than 90%); R: persian speedwell, herbicidal effect rating (persian speedwell [12]; AAH 320 g/ha): 3 (Herbicidal rate of 40% or more and less than 70%) |
| Cc1nn(C)c(=O)c(-c2c(-c3ccc(C(F)F)cc3)sc3ccc(F)cc23)c1O [2-227] | 2 (Herbicidal rate of 20% or more and less than 40%) | 0 (Herbicidal rate of 5% or less (almost no effect)) |  |  | 3 (Herbicidal rate of 40% or more and less than 70%) | 4 (Herbicidal rate of 70% or more and less than 90%) | 3 (Herbicidal rate of 40% or more and less than 70%) | 5 (Herbicidal rate of 90% or more (almost completely withered)) | 1 (Herbicidal rate of 5% or more and less than 20%) | 5 (Herbicidal rate of 90% or more (almost completely withered)) | 0 (Herbicidal rate of 5% or less (almost no effect)) | 5 (Herbicidal rate of 90% or more (almost completely withered)) | 5 (Herbicidal rate of 90% or more (almost completely withered)) | 4 (Herbicidal rate of 70% or more and less than 90%) | herbicidal effect on F: southern crabgrass (criteria 0-5) (southern crabgrass [1]; [13]): 5 (Herbicidal rate of 90% or more (almost completely withered)); herbicidal effect on L: windgrass (criteria 0-5) (windgrass [2]; [13]): 0 (Herbicidal rate of 5% or less (almost no effect)); herbicidal effect on R: persian speedwell (criteria 0-5) (persian speedwell [5]; [13]): 5 (Herbicidal rate of 90% or more (almost completely withered)); herbicidal effect on K: Italian ryegrass (criteria 0-5) (Italian ryegrass [6]; [13]): 4 (Herbicidal rate of 70% or more and less than 90%); herbicidal effect on O: lambsquarters (criteria 0-5) (lambsquarters [11]; [13]): 5 (Herbicidal rate of 90% or more (almost completely withered)) |
| Cc1nn(C)c(=O)c(-c2c(-c3ccc(C#N)cc3)sc3ccc(F)cc23)c1O [2-340] | 4 (Herbicidal rate of 70% or more and less than 90%) | 5 (Herbicidal rate of 90% or more (almost completely withered)) |  |  | 5 (Herbicidal rate of 90% or more (almost completely withered)) | 5 (Herbicidal rate of 90% or more (almost completely withered)) | 5 (Herbicidal rate of 90% or more (almost completely withered)) | 5 (Herbicidal rate of 90% or more (almost completely withered)) | 3 (Herbicidal rate of 40% or more and less than 70%) | 5 (Herbicidal rate of 90% or more (almost completely withered)) | 4 (Herbicidal rate of 70% or more and less than 90%) | 5 (Herbicidal rate of 90% or more (almost completely withered)) | 5 (Herbicidal rate of 90% or more (almost completely withered)) | 5 (Herbicidal rate of 90% or more (almost completely withered)) | F: southern crabgrass, herbicidal effect (criteria 0-5) (southern crabgrass [1]; [15]): 5 (Herbicidal rate of 90% or more (almost completely withered)); L: windgrass, herbicidal effect (criteria 0-5) (windgrass [2]; [15]): 4 (Herbicidal rate of 70% or more and less than 90%); R: persian speedwell, herbicidal effect (criteria 0-5) (persian speedwell [5]; [15]): 5 (Herbicidal rate of 90% or more (almost completely withered)); K: Italian ryegrass, herbicidal effect (criteria 0-5) (Italian ryegrass [6]; [15]): 5 (Herbicidal rate of 90% or more (almost completely withered)); O: lambsquarters, herbicidal effect (criteria 0-5) (lambsquarters [11]; [15]): 5 (Herbicidal rate of 90% or more (almost completely withered)) |
